Results reported in patent publication US20120053053A1, “PYRIMIDINE DERIVATIVES AND THEIR USE AS HERBICIDES” (SYNGENTA CROP PROTECTION, LLC, priority 2009, published 2012).

Tests used:
Assay type in all cases: in vivo
[1] = system: Echinochloa crus-galli (ECHCG); assay: Post-emergence biological efficacy (percentage damage); conditions: Echinochloa crus-galli, 312 h, dose 1,000 g/ha, evaluated after 13 days, 100=total damage, 0=no damage
How it was run: (§1)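 Pot-grown plants are cultivated 8 days under glasshouse conditions (24/16 °C, 14 h light, 65% humidity), sprayed at a dose of 250 or 1000 g/ha, kept under the same conditions with twice-daily watering, and rated for damage after 13 days.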

[2] = system: Ipomea hederaceae (IPOHE); assay: as above; conditions: Ipomoea hederacea, 312 h, dose 1,000 g/ha, evaluated after 13 days, 100=total damage, 0=no damage
How it was run: as §1

Setaria faberi (SETFA) [3] = assay: as above; conditions: Setaria faberi, 312 h, dose 1,000 g/ha, evaluated after 13 days, 100=total damage, 0=no damage
How it was run: as §1

[4] = system: Alopecurus myosuroides (ALOMY); assay: as above; conditions: Alopecurus myosuroides, 312 h, dose 1,000 g/ha, evaluated after 13 days, 100=total damage, 0=no damage
How it was run: as §1

Solanum nigrum (SOLNI) [5] = assay: as above; conditions: Solanum nigrum, 312 h, dose 1,000 g/ha, evaluated after 13 days, 100=total damage, 0=no damage
How it was run: as §1

[6] = system: Amaranthus retoflexus (AMARE); assay: as above; conditions: Amaranthus retroflexus, 312 h, dose 1,000 g/ha, evaluated after 13 days, 100=total damage, 0=no damage
How it was run: as §1

[7] = system: Echinochloa crus-galli (ECHCG); assay: Pre-emergence biological efficacy (percentage damage); conditions: Echinochloa crus-galli, 312 h, dose 1,000 g/ha, evaluated after 13 days, 100=total damage, 0=no damage
How it was run: (§2)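 Pre-emergence test: seeds sown in standard soil in pots, kept one day in a glasshouse (24/16° C. day/night, 14 h light, 65% humidity), then sprayed at 250 or 1000 g/ha from an acetone/water (50:50) formulation with 0.5% Tween 20. Damage scored after 13 days (0 = none, 100 = total).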

[8] = system: Ipomea hederaceae (IPOHE); assay: as above; conditions: Ipomoea hederacea, 312 h, dose 1,000 g/ha, evaluated after 13 days, 100=total damage, 0=no damage
How it was run: as §2

Setaria faberi (SETFA) [9] = assay: as above; conditions: Setaria faberi, 312 h, dose 1,000 g/ha, evaluated after 13 days, 100=total damage, 0=no damage
How it was run: as §2

[10] = system: Alopecurus myosuroides (ALOMY); assay: as above; conditions: Alopecurus myosuroides, 312 h, dose 1,000 g/ha, evaluated after 13 days, 100=total damage, 0=no damage
How it was run: as §2

Solanum nigrum (SOLNI) [11] = assay: as above; conditions: Solanum nigrum, 312 h, dose 1,000 g/ha, evaluated after 13 days, 100=total damage, 0=no damage
How it was run: as §2

[12] = system: Amaranthus retoflexus (AMARE); assay: as above; conditions: Amaranthus retroflexus, 312 h, dose 1,000 g/ha, evaluated after 13 days, 100=total damage, 0=no damage
How it was run: as §2

Row | SMILES | pest or weed control at 1000 g/ha [1] [%] | pest or weed control at 1000 g/ha [2] [%] | pest or weed control at 1000 g/ha (Setaria faberi (SETFA) [3]) [%] | pest or weed control at 1000 g/ha [4] [%] | pest or weed control at 1000 g/ha (Solanum nigrum (SOLNI) [5]) [%] | pest or weed control at 1000 g/ha [6] [%] | pest or weed control at 1000 g/ha [7] [%] | pest or weed control at 1000 g/ha [8] [%] | pest or weed control at 1000 g/ha (Setaria faberi (SETFA) [9]) [%] | pest or weed control at 1000 g/ha [10] [%] | pest or weed control at 1000 g/ha (Solanum nigrum (SOLNI) [11]) [%] | pest or weed control at 1000 g/ha [12] [%]
1 | C=Cc1c(N)nc(-c2ccc(Cl)c(OC)c2F)nc1C(=O)O [Compound 27-21, 4-amino-2-(4-chloro-2-fluoro-3-methoxyphenyl)-5-ethenylpyrimidine-6-carboxylic acid] | 90 | 90 | 100 | 90 | 90 | 100 | 100 | 100 | 100 | 90 | 100 | 100
2 | COC(=O)c1nc(-c2ccc(Cl)c(OC)c2F)nc(N)c1C=C(C)C [Compound 27-69, 4-Amino-2-(4-chloro-2-fluoro-3-methoxyphenyl)-6-methoxycarbonyl-5-(2-methylprop-1-enyl)-pyrimidine] | 10 | 40 | 40 | 40 | 80 | 90 | 30 | 30 | 60 | 40 | 100 | 100
3 | C=Cc1c(OC)nc(C2CC2)nc1C(=O)OC [Compound 2-398, 2-Cyclopropyl-5-ethenyl-4-methoxy-6-methoxy-carbonyl-pyrimidine] | 0 | 90 | 0 | 0 | 80 | 90 | 0 | 100 | 0 | 0 | 90 | 90
4 | C=Cc1c(N)nc(-c2ccc(F)c(Cl)c2)nc1C(=O)OC [Compound 44-61, 4-Amino-2-(3-chloro-4-fluorophenyl)-5-ethenyl-6-methoxycarbonyl-pyrimidine] | 50 | 30 | 60 | 40 | 90 | 100 | 40 | 10 | 30 | 20 | 40 | 50
5 | C=Cc1c(C(=O)OC)nc(C2CC2)nc1N(C)C [Compound 2-225, 2-Cyclopropyl-4-dimethylamino-5-ethenyl-6-methoxycarbonyl-pyrimidine] | 0 | 30 | 0 | 0 | 50 | 40 | 0 | 20 | 0 | 0 | 0 | 40
6 | C=Cc1c(N)nc(C2CC2)nc1C(=O)OC [Compound 2-61, 4-Amino-2-cyclopropyl-5-ethenyl-6-methoxycarbonyl-pyrimidine] | 60 | 100 | 80 | 40 | 100 | 100 | 80 | 100 | 20 | 40 | 100 | 100
7 | C=Cc1c(N)nc(-c2ccc(Cl)c(N(C)C)c2F)nc1C(=O)OCC [Compound 33-101, 4-amino-2-(4-chloro-3-dimethylamino-2-fluorophenyl)-5-ethenyl-6-ethoxycarbonyl-pyrimidine] | 90 | 60 | 80 | 80 | 90 | 100 | 90 | 30 | 90 | 60 | 90 | 100
8 | CC(O)c1c(N)nc(-c2ccc(C(F)(F)F)cc2)nc1CO (stereo not drawn) [Compound 31-372, 4-amino-5-(1-hydroxyethyl)-6-hydroxymethyl-2-(4-trifluoromethylphenyl)-pyrimidine] | 10 | 30 | 30 | 10 | 30 | 20 | 0 | 0 | 0 | 0 | 0 | 0
9 | C=Cc1c(N)nc(-c2ccc(Cl)c(N(C)C)c2F)nc1C(=O)OCc1ccccc1 [Compound 33-336, 4-Amino-2-(4-chloro-3-dimethylamino-2-fluorophenyl)-5-ethenyl-6-phenylmethoxy-carbonyl-pyrimidine] | 90 | 40 | 90 | 90 | 90 | 100 | 90 | 20 | 80 | 70 | 80 | 100
10 | C=Cc1c(N)nc(-c2ccc(Cl)cc2)nc1C(=O)OC [Compound 5-61, 4-Amino-2-(4-chlorophenyl)-5-ethenyl-6-methoxycarbonyl-pyrimidine] | 90 | 100 | 100 | 80 | 100 | 100 | 60 | 90 | 60 | 60 | 90 | 100
11 | COC(=O)c1nc(-c2ccc(Cl)c(N(C)C)c2F)nc(N)c1C(C)=O [Compound 33-53, 4-Amino-2-(4-chloro-3-dimethylamino-2-fluorophenyl)-6-methoxycarbonyl-5-methylcarbonyl-pyrimidine] | 20 | 40 | 20 | 10 | 50 | 100 | 0 | 0 | 0 | 0 | 0 | 0
12 | C=Cc1c(N)nc(-c2ccc(F)c(F)c2)nc1C(=O)OC [Compound 67-61, 4-Amino-2-(3,4-difluorophenyl)-5-ethenyl-6-methoxycarbonyl-pyrimidine] | 40 | 60 | 10 | 20 | 90 | 100 | 30 | 50 | 30 | 30 | 70 | 100
13 | C=CCc1c(N)nc(-c2ccc(C(F)(F)F)cc2)nc1C(=O)OC [Compound 31-63, 4-Amino-6-methoxycarbonyl-5-(prop-1-en-3-yl)-2-(4-trifluoromethyl-phenyl)-pyrimidine] | 0 | 40 | 0 | 0 | 50 | 40 | 0 | 0 | 0 | 0 | 0 | 0
